This is an account of results in article PMC9329436, “Optimization of the 4-anilinoquin(az)oline scaffold as epidermal growth factor receptor (EGFR) inhibitors for chordoma utilizing a toxicology profiling assay platform” (Scientific Reports, 2022).

SMILES strings stand for the structures. Read-outs that look alike come from different tables or passages of the source.

Type in all cases: biochemical
The target of experiment [1] is T1, 320 wild-type protein kinases (Homo sapiens, UniProt Q9UL54).
T1 sequence (Q9UL54 1-1235): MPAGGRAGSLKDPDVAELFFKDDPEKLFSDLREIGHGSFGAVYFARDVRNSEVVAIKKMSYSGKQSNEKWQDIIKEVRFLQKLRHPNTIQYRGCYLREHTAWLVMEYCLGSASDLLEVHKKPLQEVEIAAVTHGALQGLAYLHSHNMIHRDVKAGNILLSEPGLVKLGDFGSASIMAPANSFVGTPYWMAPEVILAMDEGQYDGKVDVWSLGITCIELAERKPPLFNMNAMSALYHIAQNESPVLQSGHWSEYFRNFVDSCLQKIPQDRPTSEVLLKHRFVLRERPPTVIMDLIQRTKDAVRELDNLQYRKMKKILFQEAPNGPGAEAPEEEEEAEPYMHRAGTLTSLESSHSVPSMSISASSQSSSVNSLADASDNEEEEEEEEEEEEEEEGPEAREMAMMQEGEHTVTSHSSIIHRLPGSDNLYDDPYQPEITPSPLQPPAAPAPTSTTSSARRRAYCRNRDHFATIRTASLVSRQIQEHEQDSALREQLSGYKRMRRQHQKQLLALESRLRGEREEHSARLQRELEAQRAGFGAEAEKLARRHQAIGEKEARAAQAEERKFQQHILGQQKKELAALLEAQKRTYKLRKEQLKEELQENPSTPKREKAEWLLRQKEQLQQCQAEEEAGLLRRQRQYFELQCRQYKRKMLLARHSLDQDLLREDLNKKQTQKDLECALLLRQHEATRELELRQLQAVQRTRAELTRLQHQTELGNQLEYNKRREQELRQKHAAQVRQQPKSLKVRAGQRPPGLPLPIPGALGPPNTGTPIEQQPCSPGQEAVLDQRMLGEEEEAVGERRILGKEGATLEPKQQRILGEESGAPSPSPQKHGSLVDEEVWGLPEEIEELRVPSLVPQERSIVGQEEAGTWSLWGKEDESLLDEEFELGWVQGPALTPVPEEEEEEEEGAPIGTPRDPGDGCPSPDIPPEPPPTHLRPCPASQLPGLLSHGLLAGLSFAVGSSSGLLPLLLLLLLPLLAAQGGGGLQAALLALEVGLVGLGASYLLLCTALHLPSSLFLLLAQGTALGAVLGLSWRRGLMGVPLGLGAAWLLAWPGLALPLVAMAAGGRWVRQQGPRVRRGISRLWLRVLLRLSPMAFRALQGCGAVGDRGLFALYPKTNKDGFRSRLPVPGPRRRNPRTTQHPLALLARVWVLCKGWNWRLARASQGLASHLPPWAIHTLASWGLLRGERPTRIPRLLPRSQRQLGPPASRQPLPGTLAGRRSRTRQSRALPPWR
As to conditions: kinase TAOK2, singlicate. The text has this: (§1) Table S4. Profiling of two compounds at two concentrations against 320 wild-type protein kinases; singlicate measurement; Residual activities (% of control).

Experiment [2] deals with T2, 320 wild-type protein kinases (Homo sapiens, UniProt Q8TDC3).
T2 sequence (Q8TDC3 1-778): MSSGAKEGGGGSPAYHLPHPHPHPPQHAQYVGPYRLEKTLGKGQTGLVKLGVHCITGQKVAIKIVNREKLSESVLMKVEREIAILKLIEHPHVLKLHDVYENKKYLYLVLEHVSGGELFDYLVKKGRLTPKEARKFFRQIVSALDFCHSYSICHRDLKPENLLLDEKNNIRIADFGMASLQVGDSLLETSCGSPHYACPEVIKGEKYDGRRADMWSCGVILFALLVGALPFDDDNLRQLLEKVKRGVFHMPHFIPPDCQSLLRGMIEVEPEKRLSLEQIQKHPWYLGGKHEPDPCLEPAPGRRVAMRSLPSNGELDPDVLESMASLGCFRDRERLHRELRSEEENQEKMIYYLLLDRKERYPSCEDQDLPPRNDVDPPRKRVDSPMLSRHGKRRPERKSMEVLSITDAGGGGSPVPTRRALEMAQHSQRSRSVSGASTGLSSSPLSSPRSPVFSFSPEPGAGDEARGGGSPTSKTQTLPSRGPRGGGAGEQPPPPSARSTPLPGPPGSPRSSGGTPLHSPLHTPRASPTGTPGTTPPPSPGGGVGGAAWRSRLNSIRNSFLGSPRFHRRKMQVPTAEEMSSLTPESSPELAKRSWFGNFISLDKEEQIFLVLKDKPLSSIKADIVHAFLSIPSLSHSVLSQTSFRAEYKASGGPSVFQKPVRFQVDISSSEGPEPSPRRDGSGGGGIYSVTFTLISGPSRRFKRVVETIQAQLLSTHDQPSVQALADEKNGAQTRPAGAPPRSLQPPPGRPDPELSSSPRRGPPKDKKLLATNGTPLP
As to conditions: singlicate.
From the text: as §1

Experiment [3] concerns the target 320 wild-type protein kinases (Homo sapiens, UniProt Q9H1R3). Particulars: singlicate.
From the text: as §1

Experiment [4] concerns the target 320 wild-type protein kinases (Homo sapiens, UniProt P54764). As to conditions: singlicate.
From the text: as §1

For experiment [5], the target named is 320 wild-type protein kinases (Homo sapiens, UniProt Q9NQU5). Particulars: singlicate.
From the text: as §1

The target of experiment [6] is 320 wild-type protein kinases (Homo sapiens, UniProt Q8N568). As to conditions: singlicate.
From the text: as §1

Experiment [7] deals with 320 wild-type protein kinases (Homo sapiens, UniProt P06213). As to conditions: INS-R, singlicate.
From the text: as §1

The target of experiment [8] is 320 wild-type protein kinases (Homo sapiens, UniProt Q9Y6E0). As to conditions: singlicate.
From the text: as §1

The target of experiment [9] is 320 wild-type protein kinases (Homo sapiens, UniProt P08069). Particulars: IGF1-R, singlicate.
From the text: as §1

Sequence of 320 wild-type protein kinases (Homo sapiens, UniProt P06213) (P06213 28-1382): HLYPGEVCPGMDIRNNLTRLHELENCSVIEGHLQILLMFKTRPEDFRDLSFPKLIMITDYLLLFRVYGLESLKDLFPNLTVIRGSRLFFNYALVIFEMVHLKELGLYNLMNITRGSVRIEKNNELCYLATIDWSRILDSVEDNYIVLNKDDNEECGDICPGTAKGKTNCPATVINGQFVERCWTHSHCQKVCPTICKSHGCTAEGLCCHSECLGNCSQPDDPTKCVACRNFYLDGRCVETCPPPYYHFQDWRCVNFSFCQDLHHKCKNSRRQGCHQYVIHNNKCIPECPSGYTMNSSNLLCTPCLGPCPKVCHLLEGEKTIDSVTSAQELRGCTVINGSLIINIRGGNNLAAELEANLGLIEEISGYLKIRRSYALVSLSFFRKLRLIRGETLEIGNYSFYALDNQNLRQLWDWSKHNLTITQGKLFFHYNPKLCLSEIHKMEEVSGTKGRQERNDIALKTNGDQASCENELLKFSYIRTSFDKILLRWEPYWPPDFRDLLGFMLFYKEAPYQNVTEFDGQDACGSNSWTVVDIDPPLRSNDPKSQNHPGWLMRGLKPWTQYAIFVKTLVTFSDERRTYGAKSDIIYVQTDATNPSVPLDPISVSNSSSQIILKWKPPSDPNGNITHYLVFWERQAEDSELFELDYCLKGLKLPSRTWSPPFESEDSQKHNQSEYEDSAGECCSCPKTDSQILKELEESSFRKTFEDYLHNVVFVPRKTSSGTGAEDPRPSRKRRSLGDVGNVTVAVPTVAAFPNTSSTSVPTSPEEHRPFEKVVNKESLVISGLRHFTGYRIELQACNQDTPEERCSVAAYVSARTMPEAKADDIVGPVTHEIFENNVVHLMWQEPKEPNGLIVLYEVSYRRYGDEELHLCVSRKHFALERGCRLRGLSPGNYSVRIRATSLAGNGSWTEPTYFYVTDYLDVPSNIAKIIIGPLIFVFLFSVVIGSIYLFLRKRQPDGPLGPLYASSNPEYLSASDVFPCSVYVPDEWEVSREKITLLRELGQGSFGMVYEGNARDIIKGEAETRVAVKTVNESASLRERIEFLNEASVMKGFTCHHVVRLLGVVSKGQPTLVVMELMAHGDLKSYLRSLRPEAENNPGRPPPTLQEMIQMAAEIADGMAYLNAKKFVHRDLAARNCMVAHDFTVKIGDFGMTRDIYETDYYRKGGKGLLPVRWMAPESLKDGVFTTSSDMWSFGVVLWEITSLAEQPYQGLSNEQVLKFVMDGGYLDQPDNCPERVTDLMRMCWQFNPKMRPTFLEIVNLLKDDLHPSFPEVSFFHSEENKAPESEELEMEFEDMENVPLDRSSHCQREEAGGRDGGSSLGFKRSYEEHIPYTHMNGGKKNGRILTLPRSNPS
Sequence of 320 wild-type protein kinases (Homo sapiens, UniProt Q9H1R3) (Q9H1R3 whole entry): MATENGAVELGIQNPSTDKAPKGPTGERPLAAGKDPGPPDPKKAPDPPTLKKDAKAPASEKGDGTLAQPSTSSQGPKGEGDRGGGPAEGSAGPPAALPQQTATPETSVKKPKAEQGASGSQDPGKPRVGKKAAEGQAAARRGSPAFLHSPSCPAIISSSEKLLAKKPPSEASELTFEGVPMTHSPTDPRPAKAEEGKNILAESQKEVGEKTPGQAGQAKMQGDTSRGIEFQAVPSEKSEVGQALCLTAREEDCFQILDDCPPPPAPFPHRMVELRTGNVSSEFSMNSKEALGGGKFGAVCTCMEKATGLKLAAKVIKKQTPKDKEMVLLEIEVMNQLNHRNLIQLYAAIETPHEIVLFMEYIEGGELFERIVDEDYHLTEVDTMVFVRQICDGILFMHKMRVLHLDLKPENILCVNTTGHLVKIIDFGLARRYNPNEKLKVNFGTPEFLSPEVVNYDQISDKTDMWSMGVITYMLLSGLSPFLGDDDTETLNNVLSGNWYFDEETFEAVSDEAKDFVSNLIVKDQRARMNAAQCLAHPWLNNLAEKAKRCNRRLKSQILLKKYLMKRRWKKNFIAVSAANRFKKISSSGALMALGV
Sequence of 320 wild-type protein kinases (Homo sapiens, UniProt Q9NQU5) (Q9NQU5 whole entry): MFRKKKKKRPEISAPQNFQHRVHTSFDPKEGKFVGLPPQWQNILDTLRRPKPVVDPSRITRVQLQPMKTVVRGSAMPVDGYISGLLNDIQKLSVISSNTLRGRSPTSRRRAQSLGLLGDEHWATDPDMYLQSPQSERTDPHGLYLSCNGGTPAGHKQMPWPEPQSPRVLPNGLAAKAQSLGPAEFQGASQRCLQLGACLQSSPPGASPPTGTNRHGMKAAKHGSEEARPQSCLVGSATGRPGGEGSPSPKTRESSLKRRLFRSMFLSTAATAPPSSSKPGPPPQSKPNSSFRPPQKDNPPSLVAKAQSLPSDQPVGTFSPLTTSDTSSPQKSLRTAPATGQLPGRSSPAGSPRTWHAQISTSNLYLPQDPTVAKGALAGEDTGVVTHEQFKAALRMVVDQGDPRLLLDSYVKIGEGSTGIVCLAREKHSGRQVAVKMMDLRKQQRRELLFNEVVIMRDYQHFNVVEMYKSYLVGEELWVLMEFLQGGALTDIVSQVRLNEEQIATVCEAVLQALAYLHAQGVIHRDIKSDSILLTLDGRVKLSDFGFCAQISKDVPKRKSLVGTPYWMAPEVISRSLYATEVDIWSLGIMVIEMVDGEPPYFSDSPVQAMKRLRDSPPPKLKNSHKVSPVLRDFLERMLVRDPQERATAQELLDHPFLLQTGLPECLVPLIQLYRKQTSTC
Sequence of 320 wild-type protein kinases (Homo sapiens, UniProt P08069) (P08069 31-1367): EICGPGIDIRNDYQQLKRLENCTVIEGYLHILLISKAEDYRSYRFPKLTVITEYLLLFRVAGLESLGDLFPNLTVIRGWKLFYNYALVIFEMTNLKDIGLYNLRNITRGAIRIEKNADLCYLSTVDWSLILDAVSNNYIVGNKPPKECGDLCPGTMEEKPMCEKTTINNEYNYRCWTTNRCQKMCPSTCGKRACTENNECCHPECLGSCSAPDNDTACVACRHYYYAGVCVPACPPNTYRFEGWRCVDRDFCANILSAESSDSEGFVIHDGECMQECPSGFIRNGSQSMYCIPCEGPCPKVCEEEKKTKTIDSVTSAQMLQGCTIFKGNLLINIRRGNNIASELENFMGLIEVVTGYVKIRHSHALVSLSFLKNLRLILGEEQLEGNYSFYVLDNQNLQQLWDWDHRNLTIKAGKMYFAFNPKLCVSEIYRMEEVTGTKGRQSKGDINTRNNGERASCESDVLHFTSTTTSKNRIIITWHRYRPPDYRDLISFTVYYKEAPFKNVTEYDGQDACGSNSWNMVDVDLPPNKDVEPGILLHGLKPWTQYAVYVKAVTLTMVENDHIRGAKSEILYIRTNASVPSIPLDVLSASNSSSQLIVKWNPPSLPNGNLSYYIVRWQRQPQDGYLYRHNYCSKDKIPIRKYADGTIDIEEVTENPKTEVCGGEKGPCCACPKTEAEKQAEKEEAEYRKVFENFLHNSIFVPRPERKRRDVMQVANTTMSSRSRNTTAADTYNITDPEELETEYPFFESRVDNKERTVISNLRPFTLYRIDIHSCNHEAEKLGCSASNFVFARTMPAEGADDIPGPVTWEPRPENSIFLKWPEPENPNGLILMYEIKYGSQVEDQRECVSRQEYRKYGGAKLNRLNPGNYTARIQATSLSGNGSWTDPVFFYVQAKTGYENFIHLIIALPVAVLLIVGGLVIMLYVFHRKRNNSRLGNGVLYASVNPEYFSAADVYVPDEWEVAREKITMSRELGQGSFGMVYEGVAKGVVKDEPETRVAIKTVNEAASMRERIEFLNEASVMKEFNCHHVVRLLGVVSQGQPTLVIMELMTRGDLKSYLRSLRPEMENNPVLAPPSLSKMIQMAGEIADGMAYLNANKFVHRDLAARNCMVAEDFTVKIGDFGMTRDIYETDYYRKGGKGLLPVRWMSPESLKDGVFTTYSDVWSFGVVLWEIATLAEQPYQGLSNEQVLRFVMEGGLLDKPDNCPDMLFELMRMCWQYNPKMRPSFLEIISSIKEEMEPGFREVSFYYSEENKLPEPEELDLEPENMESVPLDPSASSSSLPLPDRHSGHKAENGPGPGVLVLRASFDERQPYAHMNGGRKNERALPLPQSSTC
Sequence of 320 wild-type protein kinases (Homo sapiens, UniProt P54764) (P54764 20-986): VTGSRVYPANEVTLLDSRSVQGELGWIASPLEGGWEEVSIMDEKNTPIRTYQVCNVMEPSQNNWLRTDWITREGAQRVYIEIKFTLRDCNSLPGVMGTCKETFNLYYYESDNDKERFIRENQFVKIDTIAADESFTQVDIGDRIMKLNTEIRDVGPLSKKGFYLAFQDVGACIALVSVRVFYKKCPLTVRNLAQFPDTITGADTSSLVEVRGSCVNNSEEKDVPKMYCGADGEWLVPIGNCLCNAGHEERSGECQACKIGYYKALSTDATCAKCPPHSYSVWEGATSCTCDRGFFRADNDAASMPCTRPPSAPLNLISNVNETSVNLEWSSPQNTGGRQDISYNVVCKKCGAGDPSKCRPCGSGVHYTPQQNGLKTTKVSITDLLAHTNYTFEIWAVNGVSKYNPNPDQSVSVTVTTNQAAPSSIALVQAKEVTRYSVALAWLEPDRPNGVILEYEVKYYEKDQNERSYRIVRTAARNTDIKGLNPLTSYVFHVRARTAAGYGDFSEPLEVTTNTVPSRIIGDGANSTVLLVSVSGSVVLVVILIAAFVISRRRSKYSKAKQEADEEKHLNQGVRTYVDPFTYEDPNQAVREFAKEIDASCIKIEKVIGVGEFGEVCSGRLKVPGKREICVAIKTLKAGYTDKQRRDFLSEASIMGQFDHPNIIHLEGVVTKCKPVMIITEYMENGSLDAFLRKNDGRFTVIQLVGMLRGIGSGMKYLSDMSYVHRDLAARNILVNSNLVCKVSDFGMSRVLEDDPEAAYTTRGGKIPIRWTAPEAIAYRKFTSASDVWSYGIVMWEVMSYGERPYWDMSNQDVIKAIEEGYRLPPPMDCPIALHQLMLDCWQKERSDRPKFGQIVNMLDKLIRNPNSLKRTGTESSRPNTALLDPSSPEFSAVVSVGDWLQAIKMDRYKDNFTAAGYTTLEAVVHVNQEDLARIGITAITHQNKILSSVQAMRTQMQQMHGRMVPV

Take `C#Cc1cc(Nc2ncnc3cc(I)ccc23)ccc1Cl` [Compound 41]: the results for the “Residual activity, TAOK2” value in [1] (assay conc. 1.0E-06 M) and in experiment [1] (assay conc. 1.0E-07 M) were 96 % of control and 110 % of control, respectively. The Residual activity is on record as 91 % of control in [2] (BRSK1, 1.0E-06 M); 100 % of control in experiment [2] (BRSK1, 1.0E-07 M); 75 % of control in experiment [3] (MYLK2, 1.0E-06 M); 90 % of control in experiment [3] (MYLK2, 1.0E-07 M); 83 % of control in experiment [4] (EPHA4, 1.0E-06 M); 96 % of control in experiment [4] (EPHA4, 1.0E-07 M). In addition, the Residual activity is listed as 88 % of control in experiment [5] (PAK6, 1.0E-06 M); 97 % of control in experiment [5] (PAK6, 1.0E-07 M); 90 % of control in experiment [6] (DCAMKL2, 1.0E-06 M); 87 % of control in [6] (DCAMKL2, 1.0E-07 M); 96 % of control in [7] (1.0E-06 M); 105 % of control in [7] (1.0E-07 M). Further, the Residual activity in experiment [8] (MST3, 1.0E-06 M) was 104 % of control; in experiment [8] (MST3, 1.0E-07 M) it was 116 % of control; in experiment [9] (1.0E-06 M), 103 % of control; in experiment [9] (1.0E-07 M), 109 % of control.

`C#Cc1cc(Nc2ncnc3cc(OC)c(OC)cc23)ccc1Cl` [Compound 45]: the “Residual activity, TAOK2” value in [1] (assay conc. 1.0E-06 M) is reported as 106 % of control; in experiment [1] (assay conc. 1.0E-07 M), 109 % of control. Also, the Residual activity in experiment [2] (BRSK1, 1.0E-06 M) is reported as 97 % of control; in [2] (BRSK1, 1.0E-07 M), 89 % of control; in experiment [3] (MYLK2, 1.0E-06 M), 70 % of control; in experiment [3] (MYLK2, 1.0E-07 M), 89 % of control; in experiment [4] (EPHA4, 1.0E-06 M) it was 61 % of control; in experiment [4] (EPHA4, 1.0E-07 M) it was 99 % of control. For the same compound, the Residual activity is listed as 87 % of control in experiment [5] (PAK6, 1.0E-06 M); 98 % of control in experiment [5] (PAK6, 1.0E-07 M); 103 % of control in [6] (DCAMKL2, 1.0E-06 M); 97 % of control in [6] (DCAMKL2, 1.0E-07 M); 82 % of control in experiment [7] (1.0E-06 M); 97 % of control in [7] (1.0E-07 M). Besides, the Residual activity is reported as 94 % of control in experiment [8] (MST3, 1.0E-06 M); 93 % of control in experiment [8] (MST3, 1.0E-07 M); 101 % of control in experiment [9] (1.0E-06 M); 122 % of control in experiment [9] (1.0E-07 M).
